Earlier results as cited in patent US20240408053A1, “ENTERITIS-SUPPRESSING COMPOSITION” (KOBE GAKUIN EDUCATIONAL FOUNDATION, priority 2021, published 2024).

Details: blood metabolites after oral sesaminol in rats, for a short time (NPL 11); cited from earlier work

| Substance | antioxidant activity relative to that of sesaminol |
| --- | --- |
| 5″-methylated sesamin-6-catechol | approximately 1.6 times |
| sesaminol-6-catechol | approximately 1.6 times |
